This note sets out measurements from US20120101100A1 (priority 2008, published 2012).

Chain of S. aureus GyrB ATPase (P0A0K8 whole entry): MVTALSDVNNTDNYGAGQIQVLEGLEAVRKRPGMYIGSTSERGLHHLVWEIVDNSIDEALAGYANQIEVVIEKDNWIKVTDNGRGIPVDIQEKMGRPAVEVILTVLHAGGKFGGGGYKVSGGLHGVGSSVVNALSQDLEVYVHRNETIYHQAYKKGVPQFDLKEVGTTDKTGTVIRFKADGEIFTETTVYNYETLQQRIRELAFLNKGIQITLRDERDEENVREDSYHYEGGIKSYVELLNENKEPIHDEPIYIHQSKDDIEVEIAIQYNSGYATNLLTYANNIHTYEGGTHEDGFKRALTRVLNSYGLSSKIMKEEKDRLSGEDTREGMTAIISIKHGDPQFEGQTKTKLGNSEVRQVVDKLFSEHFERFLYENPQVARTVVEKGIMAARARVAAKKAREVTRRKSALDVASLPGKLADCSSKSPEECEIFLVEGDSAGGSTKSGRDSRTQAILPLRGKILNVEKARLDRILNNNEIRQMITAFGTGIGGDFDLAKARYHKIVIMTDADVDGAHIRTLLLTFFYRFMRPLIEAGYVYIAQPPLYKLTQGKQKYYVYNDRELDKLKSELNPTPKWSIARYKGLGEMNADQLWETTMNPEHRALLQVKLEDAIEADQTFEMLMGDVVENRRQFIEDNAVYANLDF
Chain of S. aureus GyrB ATPase (P0AES4 whole entry, further chain): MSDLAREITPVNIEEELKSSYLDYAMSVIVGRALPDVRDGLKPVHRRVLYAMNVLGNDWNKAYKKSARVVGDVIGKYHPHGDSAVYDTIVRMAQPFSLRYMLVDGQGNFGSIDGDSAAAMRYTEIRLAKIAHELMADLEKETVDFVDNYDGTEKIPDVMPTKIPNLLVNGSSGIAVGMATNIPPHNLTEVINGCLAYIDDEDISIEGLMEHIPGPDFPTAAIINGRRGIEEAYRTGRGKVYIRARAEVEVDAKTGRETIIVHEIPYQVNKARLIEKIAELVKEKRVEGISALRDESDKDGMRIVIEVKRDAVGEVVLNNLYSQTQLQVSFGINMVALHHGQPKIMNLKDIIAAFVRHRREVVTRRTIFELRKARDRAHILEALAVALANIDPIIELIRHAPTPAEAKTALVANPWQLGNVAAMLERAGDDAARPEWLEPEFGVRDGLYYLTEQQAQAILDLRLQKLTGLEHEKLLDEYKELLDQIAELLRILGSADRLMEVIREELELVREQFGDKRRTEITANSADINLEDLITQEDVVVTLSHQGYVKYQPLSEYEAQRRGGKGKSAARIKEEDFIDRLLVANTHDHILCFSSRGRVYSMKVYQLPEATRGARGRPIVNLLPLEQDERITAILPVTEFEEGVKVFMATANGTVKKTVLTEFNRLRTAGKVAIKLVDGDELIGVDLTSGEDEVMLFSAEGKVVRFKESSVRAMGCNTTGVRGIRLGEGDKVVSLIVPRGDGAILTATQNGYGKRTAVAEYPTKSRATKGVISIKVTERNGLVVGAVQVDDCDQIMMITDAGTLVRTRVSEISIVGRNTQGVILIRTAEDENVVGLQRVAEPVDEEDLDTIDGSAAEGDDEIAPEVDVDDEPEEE

The first experiment concerns the target S. aureus GyrB ATPase (Staphylococcus aureus, UniProt P0A0K8). Description: S. aureus (SAU) GyrB ATPase inhibition, malachite green phosphate detection (E. coli GyrA + S. aureus GyrB). It counts as biochemical. Particulars: 10 compound concentrations; 500 μM ATP. The protocol: Compounds were tested for inhibition of GyrB ATPase activity using an ammonium molybdate/malachite green-based phosphate detection assay (Lanzetta, P. A., L. J. Alvarez, P. S. Reinach, and O. A. Candia, 1979, 100: 95-97). Assays were performed in multiwell plates in 100 μl reactions containing: 50 mM Hepes buffer pH 7.5, 75 mM ammonium acetate, 8.0 mM magnesium chloride, 1.0 mM ethylenediaminetetraacetic acid, 5% glycerol, 2 mM 1,4-Dithio-DL-threitol, 400 nM bovine serum albumin, 5 μg/ml sheared salmon sperm DNA, 1.25 nM E. coli GyrA, 1.25 nM S. aureus GyrB, 500 μM ATP, and compound in dimethylsulfoxide. Reactions were quenched with 150 μl of ammonium molybdate/malachite green detection reagent containing 1.2 mM malachite green hydrochloride, 8.5 mM ammonium molybdate tetrahydrate, and 1 M hydrochloric acid. Plates were read in an absorbance plate reader at 650 nm and percent inhibition values were calculated using dimethylsulfoxide (2%)-containing reactions as 0% inhibition and novobiocin-containing (2 μM) reactions as 100% inhibition controls. Compound potency was based on IC50 measurements determined from reactions performed in the presence of 10 different compound concentrations.
Consider “1-Ethyl-3-(5′-(5-oxo-2,5-dihydro-1H-pyrazol-3-yl)-3,3′-bipyridin-6-yl)urea [Example 17]”, for which the IC50 came out at 10 nM.

Take `CCNC(=O)Nc1cc(-c2nc(C(F)(F)F)cs2)c(-c2cncc(-c3ncc[nH]3)c2)cn1` [Example 25, 1-(5′-(1H-Imidazol-2-yl)-4-(4-(trifluoromethyl)thiazol-2-yl)-3,3′-bipyridin-6-yl)-3-ethylurea]: the IC50 was 3 nM.

For `CCNC(=O)Nc1cc(-c2nc(C(F)(F)F)cs2)c(-c2cccc(C#N)n2)cn1` [Example 32, 1-(6-cyano-4′-(4-(trifluoromethyl)thiazol-2-yl)-2,3′-bipyridin-6′-yl)-3-ethylurea], the concentration for half-maximal inhibition (IC50) amounted to 62 nM.

Still in this experiment, the particulars now being: compound concentration of 1.0 μM unless otherwise noted; average value where assay was carried out more than once.
For the molecule “1-Ethyl-3-(5′-(5-oxo-2,5-dihydro-1H-pyrazol-3-yl)-3,3′-bipyridin-6-yl)urea [Example 17]”, the “S. aureus (SAU) GyrB ATPase % Inhibition” value is listed as 102.2%.

Still in this experiment, the particulars now being: compound concentration of 1.0 μM unless otherwise noted; average value where assay was carried out more than once; read-out: S. aureus (SAU) GyrB ATPase % Inhibition.
Consider `CCNC(=O)Nc1cc(-c2nc(C(F)(F)F)cs2)c(-c2cncc(-c3nnc(C)o3)c2)cn1` [Example 1, 1-Ethyl-3-(5′-(5-methyl-1,3,4-oxadiazol-2-yl)-4-(4-(trifluoromethyl)thiazol-2-yl)-3,3′-bipyridin-6-yl)urea], for which the inhibition at 1 µM is 99%.

With `CCNC(=O)Nc1cc(-c2nc(C(F)(F)F)cs2)c(-c2cncc(-c3nnn[nH]3)c2)cn1` [Example 3, 1-(5′-(2H-tetrazol-5-yl)-4-(4-(trifluoromethyl)thiazol-2-yl)-3,3′-bipyridin-6-yl)-3-ethylurea], the inhibition at 1 µM turned out to be 88%.

With `CCNC(=O)Nc1cc(-c2nc(C(F)(F)F)cs2)c(-c2cncc(-c3nnc(C(C)C)o3)c2)cn1` [Example 4], the inhibition at 1 µM stood at 99%.

As for `CCNC(=O)Nc1cc(-c2nc(C(F)(F)F)cs2)c(-c2cncc(-c3nnc(C(C)C)s3)c2)cn1` [Example 5, 1-Ethyl-3-(5′-(5-isopropyl-1,3,4-thiadiazol-2-yl)-4-(4-(trifluoromethyl)thiazol-2-yl)-3,3′-bipyridin-6-yl)urea], the inhibition at 1 µM amounted to 112%.

Take `CCNC(=O)Nc1cc(-c2nc(C(F)(F)F)cs2)c(-c2cncc(-c3n[nH]c(=O)o3)c2)cn1` [Example 6, 1-ethyl-3-(5′-(5-oxo-4,5-dihydro-1,3,4-oxadiazol-2-yl)-4-(4-(trifluoromethyl)thiazol-2-yl)-3,3′-bipyridin-6-yl)urea]: the inhibition at 1 µM was found to be 106%.

As to `CCNC(=O)Nc1cc(-c2nc(C(F)(F)F)cs2)c(-c2cncc(-c3nc(C)n[nH]3)c2)cn1` [Example 7, 1-Ethyl-3-(5′-(3-methyl-1H-1,2,4-triazol-5-yl)-4-(4-(trifluoromethyl)thiazol-2-yl)-3,3′-bipyridin-6-yl)urea], the inhibition at 1 µM is 90%.

With `CCNC(=O)Nc1cc(-c2nc(C(F)(F)F)cs2)c(-c2cncc(-c3nc(C)no3)c2)cn1` [Example 8], the inhibition at 1 µM is 95%.

For `CCNC(=O)Nc1cc(-c2nc(C(F)(F)F)cs2)c(-c2ncc(-c3n[nH]c(=O)o3)s2)cn1` [Example 9, 1-ethyl-3-(5-(5-(5-oxo-4,5-dihydro-1,3,4-oxadiazol-2-yl)thiazol-2-yl)-4-(4-(trifluoromethyl)thiazol-2-yl)pyridin-2-yl)urea], the inhibition at 1 µM is 106%.

`CCNC(=O)Nc1cc(-c2nc(-c3ccccn3)cs2)c(-c2cncc(-c3n[nH]c(=O)o3)c2)cn1` [Example 10, N-ethyl-N′-[5′-(5-oxo-4,5-dihydro-1,3,4-oxadiazol-2-yl)-4-(4-pyridin-2-yl-1,3-thiazol-2-yl)-3,3′-bipyridin-6-yl]urea]: the inhibition at 1 µM was 95%.

As to `CCNC(=O)Nc1cc(-c2nc(-c3ccccc3)cs2)c(-c2cncc(-c3n[nH]c(=O)o3)c2)cn1` [Example 11, 1-ethyl-3-(5′-(5-oxo-4,5-dihydro-1,3,4-oxadiazol-2-yl)-4-(4-phenylthiazol-2-yl)-3,3′-bipyridin-6-yl)urea], the inhibition at 1 µM is 107%.

On to `CCNC(=O)Nc1cc(-c2nc3ccccc3s2)c(-c2cncc(-c3n[nH]c(=O)o3)c2)cn1` [Example 12, 1-(4-(benzo[d]thiazol-2-yl)-5′-(5-oxo-4,5-dihydro-1,3,4-oxadiazol-2-yl)-3,3′-bipyridin-6-yl)-3-ethylurea], for which the inhibition at 1 µM came to 108%.

For `CCNC(=O)Nc1cc(-c2nc(C(F)(F)F)cs2)c(-c2ccc3nccnc3c2)cn1` [Example 13], the inhibition at 1 µM was found to be 103%.

For the molecule `CCNC(=O)Nc1cc(-c2nc(C(F)(F)F)cs2)c(-c2ccc[n+]([O-])c2)cn1` [Example 15, 6′-(3-Ethylureido)-4′-(4-(trifluoromethyl)thiazol-2-yl)-3,3′-bipyridine 1-oxide], the inhibition at 1 µM is 93%.

Consider `CCNC(=O)Nc1cc(-c2nc(C(F)(F)F)cs2)c(-c2nc3c(=O)[nH][nH]c(=O)c3s2)cn1` [Example 16, 1-{5-(4,7-dioxo-4,5,6,7-tetrahydro[1,3]thiazolo[4,5-d]pyridazin-2-yl)-4-[4-(trifluoromethyl)-1,3-thiazol-2-yl]pyridin-2-yl}-3-ethylurea], for which the inhibition at 1 µM turned out to be 115%.

As for `CCNC(=O)Nc1cc(-c2nc(C(F)(F)F)cs2)c(-c2cncc(-c3noc(=S)[nH]3)c2)cn1` [Example 18, 1-Ethyl-3-(5′-(5-thioxo-4,5-dihydro-1,2,4-oxadiazol-3-yl)-4-(4-(trifluoromethyl)thiazol-2-yl)-3,3′-bipyridin-6-yl)urea], the inhibition at 1 µM turned out to be 113%.

In the case of `CCNC(=O)Nc1cc(-c2nc(C(F)(F)F)cs2)c(-c2cncc(C3=NOS(=O)N3)c2)cn1` (centres unmarked) [Example 20], the inhibition at 1 µM turned out to be 111%.

Take `CCNC(=O)Nc1cc(-c2nc(C(F)(F)F)cs2)c(-c2cncc(S(C)(=O)=O)c2)cn1` [Example 22, 1-Ethyl-3-(5′-(methylsulfonyl)-4-(4-(trifluoromethyl)thiazol-2-yl)-3,3′-bipyridin-6-yl)urea]: the inhibition at 1 µM was determined as 114%.

In the case of `CCNC(=O)Nc1cc(-c2nc(C(F)(F)F)cs2)c(-c2cncc(S(N)(=O)=O)c2)cn1` [Example 23, 6′-(3-Ethylureido)-4′-(4-(trifluoromethyl)thiazol-2-yl)-3,3′-bipyridine-5-sulfonamide], the inhibition at 1 µM was found to be 110%.

For the molecule `CCNC(=O)Nc1cc(-c2nc(C(F)(F)F)cs2)c(-c2cncc(-c3cnn(C)c3)c2)cn1` [Example 24, 1-Ethyl-3-(5′-(1-methyl-1H-pyrazol-4-yl)-4-(4-(trifluoromethyl)thiazol-2-yl)-3,3′-bipyridin-6-yl)urea], the inhibition at 1 µM was 109%.

With `CCNC(=O)Nc1cc(-c2nc(C(F)(F)F)cs2)c(-c2cncc(-c3ncc[nH]3)c2)cn1` [Example 25, 1-(5′-(1H-Imidazol-2-yl)-4-(4-(trifluoromethyl)thiazol-2-yl)-3,3′-bipyridin-6-yl)-3-ethylurea], the inhibition at 1 µM was determined as 100%.

Consider `CCNC(=O)Nc1cc(-c2nc(C(F)(F)F)cs2)c(-c2cncc(C3=NCCO3)c2)cn1` [Example 26, 1-(5′-(4,5-Dihydrooxazol-2-yl)-4-(4-(trifluoromethyl)thiazol-2-yl)-3,3′-bipyridin-6-yl)-3-ethylurea], for which the inhibition at 1 µM stood at 105%.

`CCNC(=O)Nc1cc(-c2nc(-c3cnn(C)c3)cs2)c(-c2cncc(-c3n[nH]c(=O)o3)c2)cn1` [Example 27, 1-ethyl-3-(4-(4-(1-methyl-1H-pyrazol-4-yl)thiazol-2-yl)-5′-(5-oxo-4,5-dihydro-1,3,4-oxadiazol-2-yl)-3,3′-bipyridin-6-yl)urea]: the inhibition at 1 µM was found to be 109%.

Turning to `CCNC(=O)Nc1cc(-c2ccnn2C)c(-c2cncc(-c3n[nH]c(=O)o3)c2)cn1` [Example 28, 1-ethyl-3-(4-(1-methyl-1H-pyrazol-5-yl)-5′-(5-oxo-4,5-dihydro-1,3,4-oxadiazol-2-yl)-3,3′-bipyridin-6-yl)urea], the inhibition at 1 µM worked out at 70%.

As to `CCNC(=O)Nc1cc(-c2nc(C(F)(F)F)cs2)c(-c2cccc(-n3cccn3)n2)cn1` [Example 29], the inhibition at 1 µM was 114%.

Consider `CCNC(=O)Nc1cc(-c2nc(C(F)(F)F)cs2)c(-c2csc(N3CCOCC3)n2)cn1` [Example 30, 1-ethyl-3-(5-(2-morpholinothiazol-4-yl)-4-(4-(trifluoromethyl)thiazol-2-yl)pyridin-2-yl)urea], for which the inhibition at 1 µM was found to be 105%.

For `CCNC(=O)Nc1cc(-c2nc(C(F)(F)F)cs2)c(-c2cncc(C#N)n2)cn1` [Example 31, 1-(5-(6-cyanopyrazin-2-yl)-4-(4-(trifluoromethyl)thiazol-2-yl)pyridin-2-yl)-3-ethylurea], the inhibition at 1 µM worked out at 113%.

Regarding `CCNC(=O)Nc1cc(-c2nc(C(F)(F)F)cs2)c(-c2cccc(C#N)n2)cn1` [Example 32, 1-(6-cyano-4′-(4-(trifluoromethyl)thiazol-2-yl)-2,3′-bipyridin-6′-yl)-3-ethylurea], the inhibition at 1 µM stood at 106%.

Regarding `CCNC(=O)Nc1cc(-c2nc(C(F)(F)F)cs2)c(-c2ccnc(-c3n[nH]c(=O)o3)c2)cn1` [Example 33, 1-ethyl-3-(2′-(5-oxo-4,5-dihydro-1,3,4-oxadiazol-2-yl)-4-(4-(trifluoromethyl)thiazol-2-yl)-3,4′-bipyridin-6-yl)urea], the inhibition at 1 µM was determined as 117%.

Regarding `CCNC(=O)Nc1cc(-c2nc(C(F)(F)F)cs2)c(-c2nc(C)cc(-c3n[nH]c(=O)o3)n2)cn1` [Example 34, 1-ethyl-3-(5-(4-methyl-6-(5-oxo-4,5-dihydro-1,3,4-oxadiazol-2-yl)pyrimidin-2-yl)-4-(4-(trifluoromethyl)thiazol-2-yl)pyridin-2-yl)urea], the inhibition at 1 µM came to 93%.

The experiment is the same for the next values; noted with them: read-out: S. aureus (SAU) GyrB ATPase % Inhibition.
Consider `CCNC(=O)Nc1cc(-c2nc(C(F)(F)F)cs2)c(-c2cncc(C#N)c2)cn1` [Example 2, 1-(5′-cyano-4-(4-(trifluoromethyl)thiazol-2-yl)-3,3′-bipyridin-6-yl)-3-ethylurea], for which the inhibition at 1 µM was 88%.

With `CCNC(=O)Nc1cc(-c2nc(C(F)(F)F)cs2)c(-c2cncc(-c3noc(=O)[nH]3)c2)cn1` [Example 19, 1-Ethyl-3-(5′-(5-oxo-4,5-dihydro-1,2,4-oxadiazol-3-yl)-4-(4-(trifluoromethyl)thiazol-2-yl)-3,3′-bipyridin-6-yl)urea], the inhibition at 1 µM amounted to 110%.
